The values that follow are results of earlier work, collected in patent US8865213B2, “Modified release pharmaceutical compositions” (USV Limited, priority 2009, dated 2014).

As for `COC(=O)C1=C(C)NC(C)=C(C(=O)OCC(C)C)C1c1ccccc1[N+](=O)[O-]` (centres unmarked) [Nisoldipine, 3,5-pyridinedicarboxylic acid, 1,4-dihydro-2,6-dimethyl-4-(2-nitrophenyl)-, methyl 2-methyl-propyl ester], the Solubility in ethanol entry (ethanol) is “soluble”. In addition, the Solubility in water result (water) is “practically insoluble”.
